Values joined by “and” are separate entries in the source; they are usually repeats but may differ in a detail not shown here. Equal entries are not always repeated.
Tests used:
[1] = Dynamic Light Scattering of peptide (hydrodynamic radius); format: physicochemical
Procedure: (§1) Fig. 4 Aggregation kinetics of TEM and SHV proteins and peptides. A Measurements of the hydrodynamic radius by Dynamic Light Scattering of 50 μM TEM3.2 in buffer alone, or in the presence of LPS or polyphosphate (PolyP). […] C Transmission Electron Micrograph of 50 μM TEM 3.2 incubated for 24 h in the same buffer as A with polyP, negatively stained with 2% (w/v) uranyl acetate. A single representative image is shown. […] Three replicates are shown for each condition. E Aggregation kinetics using pFTAA fluorescence emission of recombinantly purified TEM-1, in the presence of vehicle, or TEM 3.2 peptin, as well as peptin-only control. F Similar as in E, but using an off-target Pept-In, based on an APR sequence of beta-galactosidase. G Similar to E, but now using a previously published off-target Pept-In, based on an APR of HcaB. The plots are the results of a single experiment, all replicates are shown. Source data are provided as a Source Data file.
A DynaPro DLS plate reader instrument (Wyatt, Santa Barbara, CA, USA) equipped with an 830 nm laser source was used to determine the hydrodynamic radius (RH) of the peptide particles. […] The autocorrelation of scattered light intensity at a 32° angle was recorded for 5 s and averaged over 20 recordings to obtain a single data point. […]

[2] = system: E. coli UZ_TEM104; assay: FACS with pFTAA (aggregation) and propidium iodide (cell death); format: cell-based, Escherichia coli
Procedure: Fig. 6 Uptake and inclusion body formation upon peptide treatment. Fluorescence-activated cell-sorting (FACS) (A) of E. coli strain UZ_TEM104 mixed 50–50% with the same strain after heat-inactivation. The cells were stained with pFTAA to monitor aggregation and propidium iodide (PI) to monitor cell permeabilization associated with cell death. 10^6 cells were analyzed for the plot. […] B Similar FACS analysis as in A, but with a sample of live bacteria only. […] Note: the horizontal and vertical lines correspond to the gatings used to obtain the quantifications shown in the corners of each image.
Treated bacteria were washed with PBS buffer two times. One microliter of PI (Invitrogen) was added to the bacteria and incubated for 5 min. The bacteria were counted by FACS to reach 40000 events. To correlate the activity of the peptides with cell death, the fluorescence intensity was measured in two channels using the Gallios^TM Flow Cytometer (Beckman Coulter, USA), PI: excitation 536 nm and emission 617 nm, FITC: excitation 490 nm and emission 525 nm. Heated bacteria at 90 °C for 10 min were used as PI-positive control.
The bacterial cultures were washed with PBS, and the number of bacteria was adjusted to 10^8–10^9 cells/mL. […] Then, cells were treated with LCO dyes (pFTAA; Amytacker^TM680 or Amytacker^TM545: final concentration of 0.5 µM; Ebba Biotech, Sweden) for at least 90 min. The absorption, emission, and excitation spectra for each dye were measured based on the standard Ebbabiotec advice (ebbabiotech.com).

[3] = system: uro-pathogenic E. coli strain (UPEC strain blaTEM-1); assay: Urinary tract infection model, bacterial load in bladder, kidney, ureter; format: in vivo, female C57BL/6JAX mice; design: bacterial load, Ureters / bacterial load, Bladder / bacterial load, Kindey: unit: CFU per mL of tissue extract; settings: each column one mouse
Procedure: Fig. 7 Evaluation of in vivo use of peptides that induce the aggregation of TEM beta-lactamase. A Lysis of human erythrocytes (hemolysis) was assessed in the presence of the indicated concentrations of TEM3.2 for 2 h at 37 °C, and normalized to the value obtained with 1% of the detergent triton. […] B Cell viability using the CellTiter Blue assay of HeLa cells treated for 24 h with the indicated concentrations TEM 3.2 at 37 °C. […] DAPI (4’,6-diamidino-2-phenylindole) is blue, while CellMask is red. D Experimental workflow of the in vivo model used in this study. E–G Bacterial load of indicated organs of female C57BL/6JAX mice with a urinary tract infection with E. coli strain UZ_TEM104, treated with 30 mg/kg penicillin (oral) as well 10 mg/kg tazobactam (oral) or 10 mg/kg TEM3.2 via the indicated treatment route. IV intravenous, IP intraperitoneal, SC subcutaneously. The data shown is from a single experiment with 12 animals for each group. The result for each animal is shown as a dot. […] The statistically significant differences were determined using ANOVA, followed by Dunnett’s multiple comparison test. […] Source data are provided as a Source Data file.
We also performed a tolerability study using a dose escalation method by administering the peptide at 2, 5, 10, 15, and 20 mg/kg via different parenteral routes: intravenous (IV), intraperitoneal (IP), and subcutaneous (SC) in female C57BL/6JAX mice, aged 8–10 weeks (Suppl Table 4). […] Vehicle alone (0.9% NaCl) was also administered (IV). After 24 h the animals were sacrificed and the bacterial load in the bladder, kidney, and ureter was quantified by determining the number of colony-forming units (CFU) per mL of tissue extract (Fig. 7E–G).
To test the efficacy of the peptides, a urinary tract infection model was performed as described previously. Briefly, female C57BL/6Jax mice female mice were deprived of water for at least 1 h. Then, they were anesthetized by IP administration of the mixture of ketamine (Nimatek)/xylazine (XYL-M 2% BE-V170581). The bladder of the mouse was massaged with fingers and pushed down gently to expel the remaining urine. Mice were slowly inoculated urethrally with 50 µL of a bacterial suspension slowly over 5 s to avoid vesicoureteral reflux (10^8 CFU/ mouse) using a sterile catheter (pediatric intravenous-access cannula (GS391350)). The catheter was removed directly after inoculation. After surgery, the animals were visually monitored for full recovery. After 1 h post inoculation, all mice received Ampicillin (30 mg/kg_PO-orally) and at the same time 3 groups of animals received the peptides via different administration routes (10 mg/kg_IV—intravenous; IP—intraperitoneal or SC—sub-cutaneous) and the positive control groups received tazobactam (10 mg/kg, PO). The negative control groups received vehicle or saline (IV administration). 2 h post inoculation, all mice received a second injection with the same concentration of each treatment as explained above. Twenty-four hours post-infection, mice were sacrificed and organs (kidney, bladder, ureter) were washed with PBS and were homogenized (Thermo Savant FastPrep FP120 Homogenizer/24 s). The homogenized tissues were serially diluted and cultured on blood agar plates. The plates were incubated overnight at 37 °C, and the number of bacteria was measured by CFU value.

[4] = target: T1, recombinantly purified TEM-1 (Escherichia coli, UniProt P62593); format: biochemical, E. coli; settings: pFTAA fluorescence kinetics
T1 construct: His-tag (N); TEV cleavage site (N); made in house; host or cells: E. coli BL21 (DE3)
Procedure: as §1

T1 sequence (P62593 24-286 limits assumed): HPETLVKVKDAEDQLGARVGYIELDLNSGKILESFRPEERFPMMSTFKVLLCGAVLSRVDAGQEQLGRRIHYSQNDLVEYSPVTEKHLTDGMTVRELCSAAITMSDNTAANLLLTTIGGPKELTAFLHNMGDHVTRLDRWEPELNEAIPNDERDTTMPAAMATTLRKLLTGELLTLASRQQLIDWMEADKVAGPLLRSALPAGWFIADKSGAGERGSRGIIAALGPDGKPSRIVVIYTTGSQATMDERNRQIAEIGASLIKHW

Substance: Ac-RLTAFLHNRRPRLTAFLRQRR-NH2 [TEM3.2]
- solubility by Dynamic Light Scattering (in words) ([1]; 50 μM peptide in buffer alone): soluble in vitro
- aggregation by Dynamic Light Scattering (in words) ([1]; 50 μM peptide in the presence of LPS or polyphosphate (PolyP)): aggregates readily when triggered by appropriate interactions
- cells with non-lethal aggregation (pFTAA shift) ([2]; 50 μg/mL TEM3.2, 4 h in PBS): > 99%
- shift in pFTAA and PI channels (in words) ([2]; 4 h, penicillin G 400 μg/mL and/or TEM3.2 50 μg/mL): a shift of the bacterial population only in the pFTAA channel
- bacterial load, Bladder ([3]; group IP): 833.333 (2×) and 4533.33 and 14866.7 and 4066.67 and 2533.33 and 900 and 1 (2×) and 37733.3 and 300 (2×)
- bacterial load, Kindey ([3]; group IP): 3566.67 and 133.333 and 27833.3 and 2666.67 and 1 (5×) and 4300 and 1700 and 2600
- bacterial load, Ureters ([3]; group IP): 6333.33 and 33.3333 and 9933.33 and 233.333 and 1 (5×) and 1166.67 and 133.333 and 2500
- bacterial load, Bladder ([3]; group IV): 9200 and 1 (3×) and 6366.67 and 4033.33 and 1500 and 566.667 and 2833.33 and 266.667 and 66.6667 and 1833.33
- bacterial load, Kindey ([3]; group IV): 1333.33 and 50433.3 and 24133.3 and 22233.3 and 400 (2×) and 1 (2×) and 29 and 6466.67 and 333.333 and 1900
- bacterial load, Ureters ([3]; group IV): 10766.7 and 11733.3 and 2766.67 and 2633.33 and 1 (4×) and 15700 and 9366.67 and 766.667 and 233.333
- bacterial load, Bladder ([3]; group Sub): 20866.7 and 166.667 and 3866.67 and 32100 and 933.333 and 300 and 1 (2×) and 1600 and 1500 and 366.667 and 133.333
- bacterial load, Kindey ([3]; group Sub): 18933.3 and 1 (6×) and 5766.67 and 66.6667 and 3300 and 4300 and 466.667
- bacterial load, Ureters ([3]; group Sub): 5500 and 1 (6×) and 5866.67 and 13433.3 and 2800 and 333.333 and 900
- induction of aggregation of recombinantly purified TEM beta-lactamase (in words) [4]: potent inducer of the aggregation of the TEM beta-lactamase

Source: publication PMC10492782, “Exploiting the aggregation propensity of beta-lactamases to design inhibitors that induce enzyme misfolding” (Nature Communications, 2023)
